Drawing on BindingDB's records for doi:10.1021/cc050016r (Uppsala University, 2005), this text covers Ki for 21 compounds.

“And” between values parts separate entries of the source, which are not always exact repeats. Equal entries are not always repeated. Bounds are passed on as bounds.

For the test, the target named is HIV-1 protease (Human immunodeficiency virus, UniProt Q9YQ34). Put plainly: Fluorometric Assay. The text has this: Fluorometric assay using HIV-1 protease.
Chain of HIV-1 protease (Q9YQ34 whole entry): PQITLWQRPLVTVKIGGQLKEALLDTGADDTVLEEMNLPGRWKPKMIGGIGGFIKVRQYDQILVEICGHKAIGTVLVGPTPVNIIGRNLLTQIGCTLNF
By Ki is commonly meant a dissociation constant, usually derived from enzyme kinetics or from competition with a known ligand. Low readings indicate tighter binding, high ones weaker binding. Consider `CNC(=O)c1ccccc1CO[C@@H](C(=O)N[C@H](C(=O)NC)C(C)C)[C@H](O)[C@@H](O)[C@@H](OCc1ccccc1C(=O)NC)C(=O)N[C@H](C(=O)NC)C(C)C` [HIV-1 Protease Inhibitor, 6a], for which the Ki was more than 5000 nM.

Take `CNC(=O)[C@@H](NC(=O)[C@H](OCc1ccccc1C(=O)NC(C)(C)C)[C@H](O)[C@@H](O)[C@@H](OCc1ccccc1C(=O)NC(C)(C)C)C(=O)N[C@H](C(=O)NC)C(C)C)C(C)C` [HIV-1 Protease Inhibitor, 6b]: the Ki was found to be 700 nM.

With `CCCCNC(=O)c1ccccc1CO[C@@H](C(=O)N[C@H](C(=O)NC)C(C)C)[C@H](O)[C@@H](O)[C@@H](OCc1ccccc1C(=O)NCCCC)C(=O)N[C@H](C(=O)NC)C(C)C` [HIV-1 Protease Inhibitor, 6c], the Ki turned out to be 600 nM.

`CNC(=O)[C@@H](NC(=O)[C@H](OCc1ccccc1C(=O)N1CCCC1)[C@H](O)[C@@H](O)[C@@H](OCc1ccccc1C(=O)N1CCCC1)C(=O)N[C@H](C(=O)NC)C(C)C)C(C)C` [HIV-1 Protease Inhibitor, 6d]: the Ki worked out at 400 nM.

Compound `CNC(=O)[C@@H](NC(=O)[C@H](OCc1ccccc1C(=O)N1CCOCC1)[C@H](O)[C@@H](O)[C@@H](OCc1ccccc1C(=O)N1CCOCC1)C(=O)N[C@H](C(=O)NC)C(C)C)C(C)C` [HIV-1 Protease Inhibitor, 6e] returned a Ki of more than 5000 nM.

Turning to `CNC(=O)[C@@H](NC(=O)[C@H](OCc1ccccc1C(=O)NC1CCCCC1)[C@H](O)[C@@H](O)[C@@H](OCc1ccccc1C(=O)NC1CCCCC1)C(=O)N[C@H](C(=O)NC)C(C)C)C(C)C` [HIV-1 Protease Inhibitor, 6f], the Ki was 200 nM and 196 nM.

Consider `CNC(=O)[C@@H](NC(=O)[C@H](OCc1ccccc1C(=O)Nc1nccs1)[C@H](O)[C@@H](O)[C@@H](OCc1ccccc1C(=O)Nc1nccs1)C(=O)N[C@H](C(=O)NC)C(C)C)C(C)C` [HIV-1 Protease Inhibitor, 6g], for which affinity was put at a Ki of 700 nM.

As to `CNC(=O)[C@@H](NC(=O)[C@H](OCc1ccccc1C(=O)Nc1ccccc1)[C@H](O)[C@@H](O)[C@@H](OCc1ccccc1C(=O)Nc1ccccc1)C(=O)N[C@H](C(=O)NC)C(C)C)C(C)C` [HIV-1 Protease Inhibitor, 6h], the Ki was 7 nM and 20 nM.

Regarding `CNC(=O)[C@@H](NC(=O)[C@H](OCc1ccccc1C(=O)Nc1cccnc1)[C@H](O)[C@@H](O)[C@@H](OCc1ccccc1C(=O)Nc1cccnc1)C(=O)N[C@H](C(=O)NC)C(C)C)C(C)C` [HIV-1 Protease Inhibitor, 6i], the Ki is 70 nM and 118 nM.

For `CNC(=O)[C@@H](NC(=O)[C@H](OCc1ccccc1C(=O)N1CCc2ccccc21)[C@H](O)[C@@H](O)[C@@H](OCc1ccccc1C(=O)N1CCc2ccccc21)C(=O)N[C@H](C(=O)NC)C(C)C)C(C)C` [HIV-1 Protease Inhibitor, 6j], the Ki worked out at 800 nM.

The compound `CCOC(=O)c1ccc(NC(=O)c2ccccc2CO[C@@H](C(=O)N[C@H](C(=O)NC)C(C)C)[C@H](O)[C@@H](O)[C@@H](OCc2ccccc2C(=O)Nc2ccc(C(=O)OCC)cc2)C(=O)N[C@H](C(=O)NC)C(C)C)cc1` [HIV-1 Protease Inhibitor, 6k] gave a Ki of 200 nM.

With `CNC(=O)[C@@H](NC(=O)[C@H](OCc1ccccc1C(=O)Nc1cccc(Cl)c1)[C@H](O)[C@@H](O)[C@@H](OCc1ccccc1C(=O)Nc1cccc(Cl)c1)C(=O)N[C@H](C(=O)NC)C(C)C)C(C)C` [HIV-1 Protease Inhibitor, 6l], the Ki is 6 nM and 8.5 nM.

As to `CNC(=O)[C@@H](NC(=O)[C@H](OCc1ccccc1C(=O)NCc1ccccc1)[C@H](O)[C@@H](O)[C@@H](OCc1ccccc1C(=O)NCc1ccccc1)C(=O)N[C@H](C(=O)NC)C(C)C)C(C)C` [HIV-1 Protease Inhibitor, 6m], the Ki was 2000 nM and 1330 nM.

Compound `CNC(=O)[C@@H](NC(=O)[C@H](OCc1ccccc1C(=O)Nc1cccc2cnccc12)[C@H](O)[C@@H](O)[C@@H](OCc1ccccc1C(=O)Nc1cccc2cnccc12)C(=O)N[C@H](C(=O)NC)C(C)C)C(C)C` [HIV-1 Protease Inhibitor, 6n] yielded a Ki of 800 nM.

In turn, `CNC(=O)c1cccc(CO[C@@H](C(=O)N[C@H](C(=O)NC)C(C)C)[C@H](O)[C@@H](O)[C@@H](OCc2cccc(C(=O)NC)c2)C(=O)N[C@H](C(=O)NC)C(C)C)c1` [HIV-1 Protease Inhibitor, 7a] gave a Ki of 20 nM.

As for `CCCCNC(=O)c1cccc(CO[C@@H](C(=O)N[C@H](C(=O)NC)C(C)C)[C@H](O)[C@@H](O)[C@@H](OCc2cccc(C(=O)NCCCC)c2)C(=O)N[C@H](C(=O)NC)C(C)C)c1` [HIV-1 Protease Inhibitor, 7b], the Ki was 3 nM and 6.5 nM.

For the compound `CNC(=O)[C@@H](NC(=O)[C@H](OCc1cccc(C(=O)N2CCCC2)c1)[C@H](O)[C@@H](O)[C@@H](OCc1cccc(C(=O)N2CCCC2)c1)C(=O)N[C@H](C(=O)NC)C(C)C)C(C)C` [HIV-1 Protease Inhibitor, 7c], affinity was put at a Ki of 200 nM.

`CNC(=O)[C@@H](NC(=O)[C@H](OCc1cccc(C(=O)N2CCOCC2)c1)[C@H](O)[C@@H](O)[C@@H](OCc1cccc(C(=O)N2CCOCC2)c1)C(=O)N[C@H](C(=O)NC)C(C)C)C(C)C` [HIV-1 Protease Inhibitor, 7d] came in with a Ki of 300 nM.

`CNC(=O)[C@@H](NC(=O)[C@H](OCc1cccc(C(=O)NC2CCCCC2)c1)[C@H](O)[C@@H](O)[C@@H](OCc1cccc(C(=O)NC2CCCCC2)c1)C(=O)N[C@H](C(=O)NC)C(C)C)C(C)C` [HIV-1 Protease Inhibitor, 7e] displayed a Ki of 20 nM.

Turning to `CNC(=O)[C@@H](NC(=O)[C@H](OCc1cccc(C(=O)Nc2ccccc2)c1)[C@H](O)[C@@H](O)[C@@H](OCc1cccc(C(=O)Nc2ccccc2)c1)C(=O)N[C@H](C(=O)NC)C(C)C)C(C)C` [HIV-1 Protease Inhibitor, 7f], the Ki was 7 nM.

Consider `CNC(=O)[C@@H](NC(=O)[C@H](OCc1cccc(C(=O)NCc2ccccc2)c1)[C@H](O)[C@@H](O)[C@@H](OCc1cccc(C(=O)NCc2ccccc2)c1)C(=O)N[C@H](C(=O)NC)C(C)C)C(C)C` [HIV-1 Protease Inhibitor, 7g], for which the Ki is 2 nM and 2.9 nM.
